In one data set the test system is Chang liver. Put plainly: MTT cytotoxicity test, normal Chang liver cells. Format: cell-based, human. The note with it: 24 h incubation, tested at 1–100 µM, three independent experiments, read-out: IC50 (µM) Normal Cell Lines Chang Liver.
The next data set concerns M-HeLa. Put plainly: MTT cytotoxicity test, M-HeLa cells. To be noted: 24 h incubation, tested at 1–100 µM, three independent experiments, read-out: IC50 (µM) Cancer Cell Lines M-HeLa. Format: cell-based, human.
The next data set concerns HuTu 80. The data set can be described thus: MTT cytotoxicity test, HuTu 80 cells. The note with it: for IC50: MTT test, 24 h incubation, tested at 1–100 µM, three independent experiments, read-out: IC50 (µM) Cancer Cell Lines HuTu 80; for selectivity index, SI = IC50(Chang liver)/IC50(HuTu 80): normal Chang liver vs HuTu 80. Format: cell-based, human.

Read-outs that look alike come from different tables or passages of the source.

Compound `Cc1ncc(CO)c2cc(C(=O)O)c(=O)oc12` [3a, 5-(hydroxymethyl)-8-methyl-2-oxo-2H-pyrano[2,3-c]pyridin-7-ium-3-carboxylate] came in with a melting point of 249 to 250 °C. Further, in the data set with Chang liver (Homo sapiens, Chang liver), the IC50 came to 58 ± 4.7 µM. Also, in the data set on M-HeLa (Homo sapiens, M-HeLa), the half-inhibitory concentration (IC50) was determined as 75.5 ± 6 µM. Also, the IC50 in the data set on HuTu 80 (Homo sapiens, HuTu80) is 57.6 ± 4.6 µM.
With `Cc1ncc(COP(=O)(O)O)c2cc(C(=O)O)c(=O)oc12` [3b, 8-methyl-2-oxo-5-((phosphonooxy)methyl)-2H-pyrano[2,3-c]pyridin-7-ium-3-carboxylate], the melting point is > 300 °C. In addition, the IC50 with Chang liver (Homo sapiens, Chang liver) is 70 ± 5.6 µM. For the same compound, the half-maximal inhibitory concentration (IC50) in the data set with M-HeLa (Homo sapiens, M-HeLa) came to 70.6 ± 5.7 µM. The IC50 in the data set with HuTu 80 (Homo sapiens, HuTu80) stood at 60.5 ± 5.3 µM.
Turning to `O=c1[nH]cc(F)c(=O)[nH]1` [5-fluorouracil, reference compound], the half-maximal inhibitory concentration (IC50) in the data set with Chang liver (Homo sapiens, Chang liver) is 86.3 ± 6.5 µM; in the data set on M-HeLa (Homo sapiens, M-HeLa) it was 62 ± 4.7 µM; in the data set with HuTu 80 (Homo sapiens, HuTu80), 65.2 ± 5.4 µM.
For `Cc1ncc(CCl)c2cc(C(=O)Nc3ccccc3)c(=O)oc12` [7a, 5-(Chloromethyl)-8-methyl-2-oxo-N-phenyl-2aH-pyrano[2,3-c]pyridine-3-carboxamide], the melting point is 240 °C (dec.). Besides, in the data set with Chang liver (Homo sapiens, Chang liver), the IC50 amounted to 56.6 ± 4.5 µM. The IC50 in the data set with M-HeLa (Homo sapiens, M-HeLa) was > 100 µM. Further, the IC50 in the data set with HuTu 80 (Homo sapiens, HuTu80) worked out at 59.4 ± 4.8 µM.
As for `COc1ccccc1NC(=O)c1cc2c(CCl)cnc(C)c2oc1=O` [7b, 5-(Chloromethyl)-N-(2-methoxyphenyl)-8-methyl-2-oxo-2H-pyrano[2,3-c]pyridine-3-carboxamide], the melting point fell in the range of 214 to 215 °C. For the same compound, the IC50 with Chang liver (Homo sapiens, Chang liver) turned out to be 46 ± 3.2 µM. For the same compound, in the data set with M-HeLa (Homo sapiens, M-HeLa), the IC50 worked out at 84.4 ± 5.5 µM. The IC50 with HuTu 80 (Homo sapiens, HuTu80) came to 55.3 ± 3.9 µM.
Turning to `Cc1ncc(CCl)c2cc(C(=O)Nc3ccc([N+](=O)[O-])cc3Br)c(=O)oc12` [7c, N-(2-Bromo-4-nitrophenyl)-5-(chloromethyl)-8-methyl-2-oxo-2H-pyrano[2,3-c]pyridine-3-carboxamide], the melting point is 240 °C (dec.). In addition, the IC50 in the data set on Chang liver (Homo sapiens, Chang liver) was 89.4 ± 6.3 µM. Moreover, in the data set on M-HeLa (Homo sapiens, M-HeLa), the half-inhibitory concentration (IC50) was 67.4 ± 4.6 µM. In addition, the IC50 in the data set with HuTu 80 (Homo sapiens, HuTu80) was 43 ± 3.5 µM.
As to `Cc1ncc(CCl)c2cc(C(=O)Nc3ccccn3)c(=O)oc12` [7d, 5-(Chloromethyl)-8-methyl-2-oxo-N-(pyridin-2-yl)-2H-pyrano[2,3-c]pyridine-3-carboxamide], the melting point was > 300 °C. Also, in the data set with Chang liver (Homo sapiens, Chang liver), the half-maximal inhibitory concentration (IC50) came to 88 ± 6.2 µM. Also, the IC50 with M-HeLa (Homo sapiens, M-HeLa) amounted to 84 ± 5.9 µM. Also, in the data set with HuTu 80 (Homo sapiens, HuTu80), the IC50 is 62 ± 4.3 µM.
On to `Cc1ncc(CCl)c2cc(C(=O)Nc3cccnc3N)c(=O)oc12` [7e, N-(2-Aminopyridin-3-yl)-5-(chloromethyl)-8-methyl-2-oxo-2H-pyrano[2,3-c]pyridine-3-carboxamide], for which the melting point is > 300 °C. The IC50 in the data set on Chang liver (Homo sapiens, Chang liver) turned out to be 55.3 ± 3.7 µM. The IC50 in the data set on M-HeLa (Homo sapiens, M-HeLa) came out at 54.3 ± 3.6 µM. Further, the IC50 with HuTu 80 (Homo sapiens, HuTu80) turned out to be 72 ± 5.2 µM.
For `Cc1ncc(CCl)c2cc(C(=O)N(c3ccccc3)c3ccccc3)c(=O)oc12.Cl` [7f, 5-(Chloromethyl)-3-(diphenylcarbamoyl)-8-methyl-2-oxo-2H-pyrano[2,3-c]pyridin-7-ium chloride], the melting point is 201 to 205 °C. In addition, in the data set on Chang liver (Homo sapiens, Chang liver), the concentration for half-maximal inhibition (IC50) was 48.4 ± 3.3 µM. Further, the IC50 in the data set with M-HeLa (Homo sapiens, M-HeLa) amounted to 32 ± 2.2 µM. Moreover, the IC50 with HuTu 80 (Homo sapiens, HuTu80) amounted to 17.4 ± 1.3 µM.
The corresponding values for `C#CCNC(=O)c1cc2c(CCl)cnc(C)c2oc1=O` [7g, 5-(Chloromethyl)-8-methyl-2-oxo-N-(prop-2-yn-1-yl)-2H-pyrano[2,3-c]pyridine-3-carboxamide] are 161 °C (dec.), 13.9 ± 0.3 µM, 14.1 ± 1.2 µM and 11.2 ± 0.9 µM.
Consider `Cc1ncc(CCl)c2cc(C(=O)Nc3ccc(S(N)(=O)=O)cc3)c(=O)oc12` [7h, 5-(Chloromethyl)-8-methyl-2-oxo-N-(4-sulfamoylphenyl)-2H-pyrano[2,3-c]pyridine-3-carboxamide], for which the melting point was > 300 °C. The IC50 in the data set with Chang liver (Homo sapiens, Chang liver) stood at 29.8 ± 2 µM. In addition, the half-maximal inhibitory concentration (IC50) in the data set on M-HeLa (Homo sapiens, M-HeLa) amounted to 14.8 ± 1.3 µM. The IC50 in the data set on HuTu 80 (Homo sapiens, HuTu80) turned out to be 2.9 ± 0.2 µM. Also, in the data set with HuTu 80, the “selectivity index, SI = IC50(Chang liver)/IC50(HuTu 80)” value (shortened to “selectivity index”) turned out to be 10.
As to `CC(=O)NS(=O)(=O)c1ccc(NC(=O)c2cc3c(CCl)cnc(C)c3oc2=O)cc1` [7i, N-(4-(N-Acetylsulfamoyl)phenyl)-5-(chloromethyl)-8-methyl-2-oxo-2H-pyrano[2,3-c]pyridine-3-carboxamide], the melting point is > 300 °C. In the data set with Chang liver (Homo sapiens, Chang liver), the IC50 turned out to be 116 ± 8.1 µM. Also, the IC50 with M-HeLa (Homo sapiens, M-HeLa) worked out at 77.8 ± 5.4 µM. For the same compound, the IC50 with HuTu 80 (Homo sapiens, HuTu80) came to 31 ± 1.9 µM.
On to `Cc1ncc(CCl)c2cc(C(=O)Nc3ccc(S(=O)(=O)Nc4ncccn4)cc3)c(=O)oc12` [7j, 5-(Chloromethyl)-8-methyl-2-oxo-N-(4-(N-(pyrimidin-2-yl)sulfamoyl)phenyl)-2H-pyrano[2,3-c]pyridine-3-carboxamide], for which the melting point was > 300 °C. In the data set with Chang liver (Homo sapiens, Chang liver), the IC50 turned out to be 73 ± 5.5 µM. For the same compound, the concentration for half-maximal inhibition (IC50) with M-HeLa (Homo sapiens, M-HeLa) came out at 73.4 ± 5.2 µM. In addition, in the data set on HuTu 80 (Homo sapiens, HuTu80), the IC50 came to 32 ± 2.1 µM.
Take `Cc1ccnc(NS(=O)(=O)c2ccc(NC(=O)c3cc4c(CCl)cnc(C)c4oc3=O)cc2)n1` [7k, 5-(Chloromethyl)-8-methyl-N-(4-(N-(4-methylpyrimidin-2-yl)sulfamoyl)phenyl)-2-oxo-2H-pyrano[2,3-c]pyridine-3-carboxamide]: the melting point is > 300 °C. The IC50 in the data set on Chang liver (Homo sapiens, Chang liver) came out at 61.3 ± 4.2 µM. Also, in the data set on M-HeLa (Homo sapiens, M-HeLa), the IC50 was 47 ± 3.1 µM. For the same compound, the 50% inhibitory concentration (IC50) in the data set with HuTu 80 (Homo sapiens, HuTu80) was determined as 18.1 ± 1.4 µM.
As to `Cc1cc(C)nc(NS(=O)(=O)c2ccc(NC(=O)c3cc4c(CCl)cnc(C)c4oc3=O)cc2)n1` [7l, 5-(Chloromethyl)-N-(4-(N-(4,6-dimethylpyrimidin-2-yl)sulfamoyl)phenyl)-8-methyl-2-oxo-2H-pyrano[2,3-c]pyridine-3-carboxamide], the melting point is > 300 °C. Also, the concentration for half-maximal inhibition (IC50) in the data set on Chang liver (Homo sapiens, Chang liver) was 126 ± 8.8 µM. Moreover, in the data set with M-HeLa (Homo sapiens, M-HeLa), the IC50 is 62.4 ± 4.4 µM. Besides, in the data set on HuTu 80 (Homo sapiens, HuTu80), the IC50 came out at 52.1 ± 3.4 µM.
Consider `Cc1ncc(CCl)c2cc(C(=O)NNC(=O)c3ccccc3)c(=O)oc12` [7m, N′-Benzoyl-5-(chloromethyl)-8-methyl-2-oxo-2H-pyrano[2,3-c]pyridine-3-carbohydrazide], for which the melting point was 240 °C (dec.). Besides, the concentration for half-maximal inhibition (IC50) with Chang liver (Homo sapiens, Chang liver) was 62.4 ± 4.9 µM. Moreover, the IC50 with M-HeLa (Homo sapiens, M-HeLa) was 61.1 ± 4.2 µM. For the same compound, the IC50 in the data set with HuTu 80 (Homo sapiens, HuTu80) was found to be 49.7 ± 3.5 µM.
As for `Cc1ncc(CCl)c2cc(C(=O)NNC(=O)c3ccncc3)c(=O)oc12` [7n, 5-(Chloromethyl)-N′-isonicotinoyl-8-methyl-2-oxo-2H-pyrano[2,3-c]pyridine-3-carbohydrazide], the melting point was > 300 °C. For the same compound, the IC50 in the data set on Chang liver (Homo sapiens, Chang liver) stood at 64.1 ± 4.8 µM. In the data set with M-HeLa (Homo sapiens, M-HeLa), the IC50 stood at 93.1 ± 6.6 µM. For the same compound, the IC50 in the data set with HuTu 80 (Homo sapiens, HuTu80) worked out at 61.2 ± 4.2 µM.
On to `Cc1ncc(CCl)c2cc(C(=O)Nc3ccccc3NC(=O)c3cc4c(CCl)cnc(C)c4oc3=O)c(=O)oc12` [7o, N,N′-(1,2-Phenylene)bis(5-(chloromethyl)-8-methyl-2-oxo-2H-pyrano[2,3-c]pyridine-3-carboxamide)], for which the melting point is 239 to 241 °C. In addition, the half-maximal inhibitory concentration (IC50) with Chang liver (Homo sapiens, Chang liver) was determined as 11.8 ± 0.9 µM. Also, the IC50 in the data set with M-HeLa (Homo sapiens, M-HeLa) worked out at 22.5 ± 1.8 µM. Further, the IC50 in the data set with HuTu 80 (Homo sapiens, HuTu80) was 3.1 ± 0.2 µM. The “selectivity index” value in the data set with HuTu 80 is recorded as 3.8.
As to `Cc1ncc(CCl)c2cc(C(=O)Nc3cccc(NC(=O)c4cc5c(CCl)cnc(C)c5oc4=O)c3)c(=O)oc12` [7p, N,N′-(1,3-Phenylene)bis(5-(chloromethyl)-8-methyl-2-oxo-2H-pyrano[2,3-c]pyridine-3-carboxamide)], the melting point was 274 °C (dec.). The IC50 in the data set on Chang liver (Homo sapiens, Chang liver) is 37 ± 2.6 µM. In addition, in the data set on M-HeLa (Homo sapiens, M-HeLa), the IC50 came to 63 ± 4.4 µM. In addition, in the data set on HuTu 80 (Homo sapiens, HuTu80), the concentration for half-maximal inhibition (IC50) was 81.5 ± 5.7 µM.
Consider `Cc1ncc(CO)c2cc(C(=O)O)c(=O)oc12.NC1CCCCC1` [8b, Cyclohexanaminium 5-(hydroxymethyl)-8-methyl-2-oxo-2H-pyrano[2,3-c]pyridine-3-carboxylate], for which the half-inhibitory concentration (IC50) was 81 ± 6.5 µM with Chang liver, 70.4 ± 5.7 µM in the data set with M-HeLa and 78.2 ± 6.3 µM in the data set with HuTu 80.
Take `Cc1ncc(CO)c2cc(C(=O)O)c(=O)oc12.Cc1ncc(CO)c2cc(C(=O)O)c(=O)oc12.Nc1cccc(N)n1` [8d, Pyridine-2,6-diaminium 5-(hydroxymethyl)-8-methyl-2-oxo-2H-pyrano[2,3-c]pyridine-3-carboxylate]: the figures for the IC50 with Chang liver, in the data set on M-HeLa and in the data set on HuTu 80 were 64.1 ± 5.1 µM, > 100 µM and 88.4 ± 7 µM, respectively.
On the same counts, the results for `Cc1ncc(COP(=O)(O)O)c2cc(C(=O)O)c(=O)oc12.Nc1ccccn1` [8e, Pyridin-2-aminium 8-methyl-2-oxo-5-((phosphonooxy)methyl)-2H-pyrano[2,3-c]pyridine-3-carboxylate] are 78.4 ± 6.3 µM, 99.5 ± 7.1 µM and 59 ± 4.1 µM.
Regarding `COc1cccc2c1C(=O)c1c(O)c3c(c(O)c1C2=O)C[C@@](O)(C(=O)CO)C[C@@H]3O[C@H]1C[C@H](N)[C@H](O)[C@H](C)O1` [Doxorubicin, reference compound], the concentration for half-maximal inhibition (IC50) in the data set with Chang liver (Homo sapiens, Chang liver) was found to be 3 ± 0.1 µM; in the data set with M-HeLa (Homo sapiens, M-HeLa), 3 ± 0.2 µM; in the data set on HuTu 80 (Homo sapiens, HuTu80), 3 ± 0.2 µM. Besides, the “selectivity index” value in the data set with HuTu 80 was determined as 1.
`Cc1ncc(CO)c2c1OC1=C(C(=O)CC(C)(C)C1)C2C1=C(O)CC(C)(C)CC1=O` (stereo not shown) [compound 4, 5-(2-hydroxy-4,4-dimethyl-6-oxocyclohex-1-en-1-yl)-4-(hydroxymethyl)-1,8,8-trimethyl-5,7,8,9-tetrahydro-6H-chromeno[2,3-c]pyridin-6-one] gave a melting point of 219 to 224 °C.

Source of the values: paper PMC10298512, “Synthesis and Anticancer Evaluation of Novel 7-Aza-Coumarine-3-Carboxamides” (International Journal of Molecular Sciences, 2023).
